Test results published in article PMC5034864 (Molecular microbiology, 2012).

Key:
Assay in all cases: FRET of YPet-PilZ-CyPet fusion protein, titration
Type in all cases: binding
[1] = molecular target: BcsA (STM3619) PilZ domain (Salmonella enterica, UniProt Q93IN2)
PA4324 = PA4324 (Pseudomonas aeruginosa, UniProt Q9HW77)
YcgR (STM1798) = YcgR (STM1798) (Salmonella enterica, UniProt Q8ZP19)
PA3353 = PA3353 (Pseudomonas aeruginosa, UniProt Q9HYP3)

Chain of YcgR (STM1798) (Q8ZP19 whole entry): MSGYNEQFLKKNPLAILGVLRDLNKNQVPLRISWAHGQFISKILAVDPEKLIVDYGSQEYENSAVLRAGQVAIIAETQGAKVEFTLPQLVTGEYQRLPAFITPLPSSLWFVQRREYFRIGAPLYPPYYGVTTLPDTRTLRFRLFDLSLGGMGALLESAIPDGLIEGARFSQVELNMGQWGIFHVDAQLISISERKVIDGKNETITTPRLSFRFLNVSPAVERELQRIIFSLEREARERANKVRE
Chain of BcsA (STM3619) PilZ domain (Q93IN2 691-791): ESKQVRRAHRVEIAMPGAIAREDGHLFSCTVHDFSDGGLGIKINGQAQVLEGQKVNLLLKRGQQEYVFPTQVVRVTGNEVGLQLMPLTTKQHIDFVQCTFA

Q: Which Kd [1] does the source give for `Nc1nc2c(ncn2[C@@H]2O[C@@H]3CO[P@](=O)(O)O[C@H]4[C@@H](O)[C@H](n5cnc6c(=O)[nH]c(N)nc65)O[C@@H]4CO[P@](=O)(O)O[C@H]3[C@H]2O)c(=O)[nH]1` [c-di-GMP] here?
A: 8240 ± 238 nM

Q: And the Kd (PA4324)?
A: 735 ± 474 nM

Q: And the Kd (YcgR (STM1798))?
A: 191 ± 18 nM

Q: And the Kd (PA3353)?
A: 88 ± 17 nM
